Experimental data reported in US20100130616A1, “SALT OF ALISKIREN WITH OROTIC ACID” (NOVARTIS AG, priority 2006, published 2010).
Where a name gives a salt, the structure may show the parent alone.

Assays:
Assay type in all cases: physicochemical
[1] = 1-Week Chemical Stability Test, total impurities by HPLC-UV 230 nm
From the text: (§1) The exceptional stability of the orotate salt of aliskiren towards water may also be shown in stability tests.

[2] = stability test towards water, water content after storage; settings: open container and sealed ampoule, four weeks at 40° C. and 75% relative humidity
From the text: as §1

[3] = dynamic vapour sorption (DVS-1), isothermal water absorption or loss as a function of relative humidity; settings: for Change in Mass (%) Desorption / Change in Mass (%) Sorption: 25° C., 2 hours after equilibration
Experimental: A clear characterisation of this property is achieved by means of isothermal measurements over predetermined time intervals and predetermined relative humidity using dynamic vapour sorption (DVS-1 from the company Surface Measurement Systems LTD, Marlow, Buckinghamshire, UK). Table 2 illustrates the mass change, i.e. the water absorption or loss as a function of relative humidity at 25° C. for a sample of the orotate salt of aliskiren and for a period of 2 hours after equilibration at each humidity level. The change in mass during the sorption and desorption cycle are shown. The measurement error of this sorption method based on thermogravimetry is about 0.1%.

Structure (SMILES)	Total Impurities (HPLC-UV, 230 nm), % ([1]; 1 week, 50 C. sealed) [%]	Total Impurities (HPLC-UV, 230 nm), % ([1]; 1 week, 50 C./75% RH) [%]	Total Impurities (HPLC-UV, 230 nm), % ([1]; 1 week, 80 C. sealed) [%]	Total Impurities (HPLC-UV, 230 nm), % ([1]; 1 week, 80 C./75% RH) [%]	Total Impurities (HPLC-UV, 230 nm), % ([1]; Unstressed) [%]	water content [2]	moisture uptake ([3]; at 80% r.h.) [%]	hygroscopicity ([3]; from moisture uptake at 80% r.h.)	Change in Mass (%) Desorption ([3]; relative humidity 0%) [%]	Change in Mass (%) Sorption ([3]; relative humidity 0%) [%]	Change in Mass (%) Desorption ([3]; relative humidity 30%) [%]	Change in Mass (%) Sorption ([3]; relative humidity 30%) [%]	Change in Mass (%) Desorption ([3]; relative humidity 50%) [%]	Change in Mass (%) Sorption ([3]; relative humidity 50%) [%]	Change in Mass (%) Desorption ([3]; relative humidity 70%) [%]	Change in Mass (%) Sorption ([3]; relative humidity 70%) [%]	Change in Mass (%) Desorption ([3]; relative humidity 90%) [%]	Change in Mass (%) Sorption ([3]; relative humidity 90%) [%]	Change in Mass (%) Desorption ([3]; relative humidity 95%) [%]	Change in Mass (%) Sorption ([3]; relative humidity 95%) [%]
COCCCOc1cc(C[C@@H](C[C@H](N)[C@@H](O)C[C@H](C(=O)NCC(C)(C)C(N)=O)C(C)C)C(C)C)ccc1OC [HemiFumarate, aliskiren hemifumarate, reference compound]	1.1	9.3	18.1	64.3	1.1	–	–	–	–	–	–	–	–	–	–	–	–	–	–	–
COCCCOc1cc(CC(C[C@H](N)[C@@H](O)CC(C(=O)NCC(C)(C)C(N)=O)C(C)C)C(C)C)ccc1OC (stereo partly shown) [orotate salt of aliskiren]	0.3	0.3	0.4	0.5	0.3	remains constant	0.4	slightly-hygroscopic	0.011	0.000	0.611	0.133	0.852	0.214	1.326	0.307	2.818	0.673	7.104	7.104
